Data taken from patent publication US12415785B2, “Compound modulators of sting” (CTXT PTY LTD, priority 2019, dated 2025).

Legend:
[1] = biological target: human HAQ isoform of STING (THP-1 STING Lucia ISG cells) (Homo sapiens (Human), UniProt Q86WV6, G230A/H232R/R293Q/R71H); assay: THP-1 STING Lucia ISG reporter cell line assay; type: cell-based; details: 24 h incubation, QUANTI-Luc luminescence
Procedure: THP-1 STING Lucia ISG cells (InvivoGen #thpI-isg) were cultured in RPMI-1640 containing 2 mM L-glutamine, 25 mM HEPES, 100 μg/mL Normocin (InvivoGen) and 10% heat-inactivated FBS. Cells were seeded at a density of 7×10^5 cells/mL, maintained at 37° C./5% CO2, and passaged every 3-4 days. Selection pressure was maintained by the addition of 100 μg/mL Zeocin every second passage.
Assay conditions: cells were harvested and resuspended at a concentration of 5×10^5 cells/mL in fresh growth media. Of this cell preparation 20 μL per well was dispensed into 384 well cell culture plates (Greiner, #781098X) and incubated at 37° C./5% CO2 for 2 hours. Concentration Response Curves (commonly 11 doses) were prepared by 2.5 fold serial dilution starting from 10 mM compound stock solution in DMSO. Compound dilutions were transferred into the cell culture plates using a pintool (0.1 μL transfer), control wells were matched for DMSO. Positive control wells received ML RR—S2 CDA (Med Chem Express HY12885B) in 5 μL of media to a final concentration of 40 μM. All other wells received additional 5 μL of media only to equalise volume. The plates were incubated for 24 h at 37° C./5% CO2.
For the detection step, QUANTI-Luc (InvivoGen #rep-qlc1) was prepared according to manufacturer's instruction and 10 μL were added per well to the culture plates. Plates were shaken for ten seconds on an orbital shaker and left in the dark at room temperature for two minutes, before luminescence was read on a Perkin Elmer Envision plate reader.
Data analysis: Luminescence raw data was normalised % activity relative to the signal of the positive control wells and negative control wells which were not treated with compound. The following formula was used to calculate normalised % activity from raw signals: % activity=(sample−negative)/(positive−negative)
The THP-1 STING Lucia ISG cell EC50 provides an assessment of activity at the human HAQ isoform of STING. For assessing compound activity against the WT human STING isoform, an equivalent method was conducted where the cells used were THP-1-Dual KI-hSTING-R232 (InvivoGen #thpd-r232).

human STING (WT) = human STING (WT) (Homo sapiens (Human), UniProt Q86WV6, H232R); assay: Surface plasmon resonance (SPR), STING (WT); type: binding; details: biotinylated STING on streptavidin chip, 8° C.
Procedure: Biophysical experiments were performed with three different recombinant human STING protein variants designated according to allelic nomenclature of Yi et al., (2013). Codon optimized DNA sequences (for expression in Escherichia coli) encoding amino acid residues 149 to 345 (Swiss Prot Q86WV6) of human STING (WT), human STING (HAQ) and human STING (R232H) were synthesised by GenScript USA Inc (Piscataway, New Jersey, USA). These were ligated into a modified pET43a E. coli expression vector designed to encode N-terminal His tag followed by tobacco etch virus protease (TEV) cleavage site and a STING gene sequence. The resulting protein sequences for the three allelic variants are listed below:
Binding interactions of ligands with STING proteins were quantified using Surface Plasmon Resonance (SPR) with a minimally biotinylated STING protein immobilized on a streptavidin chip surface. […] Minimal biotinylation of purified huSTING proteins was performed using a previously described methodology (Chhabra 2012). Briefly, approximately 20 nmol of recombinant STING protein in 1×TBS buffer (25 mM Tris-HCl, pH 7.5, 150 mM NaCl, 5 mM DTT) was mixed with of EZ-Link™ Sulfo-NHS-LC-LC-Biotin (Thermofisher Scientific, cat #21338) at a molar ratio of 1 to 0.6 and incubated on ice for 2 hours. To remove any unreacted biotin reagent, protein/biotin mixture was passed through a Superdex 75 (10/300 GL) column equilibrated with 10 mM HEPES, pH7.4, 150 mM NaCl, 5 mM DTT, 5%[v/v] glycerol. A protein peak containing biotinylated huSTING protein was collected and stored in aliquots at −80° C.
Streptavidin was simultaneously immobilized in all four channels of a CM5 sensor chip docked in a Biacore instrument (either Biacore S200 or Biacore T200, GE Healthcare) as described previously (Zender 2013). Minimally biotinylated STING protein was captured onto a streptavidin coated chip surface at 8° C. in SPR binding buffer (50 mM HEPES, pH 7.4, 150 mM NaCl, 2%[v/v] DMSO) by gradually injecting in a single channel at a constant flow-rate of 2 μL/min until desired capture level was achieved, typically 3000 to 7000 RU (1 RU=1 pg/mm^2).
All binding experiments were performed at 8° C. in SPR binding buffer. To determine binding affinity, compound interaction with immobilized STING protein was analysed using dose-response experiments. Fresh 10 mM DMSO solutions of compound were diluted directly into SPR binding buffer typically to a concentration of 50 μM and then further diluted 2-fold or 3-fold aiming for either a 5- or 7-point concentration series range. Each ligand concentration series was injected at a constant flow rate of 60 μL/min with a 90 second association and a 180 second dissociation time. These were modified for compounds with longer residence times, so that curves could reach steady-state, or so that compound would be fully dissociated before the subsequent injection.
Scrubber 2 (www.biologic.com.au) was utilized for data processing, where signals were referenced against the blank surface (streptavidin+D-biotin) and further corrected for DMSO refractive index change and then “double-referenced” using a buffer-blank injection (Papalia 2006). Responses were fitted to either a 1:1 steady-state affinity model or a 1:1 kinetic model (that included a mass-transport component), available within Scrubber.

Sequence of human STING (WT) (Q86WV6 other isoform, or with tags, fused parts or gaps, stated change not applied): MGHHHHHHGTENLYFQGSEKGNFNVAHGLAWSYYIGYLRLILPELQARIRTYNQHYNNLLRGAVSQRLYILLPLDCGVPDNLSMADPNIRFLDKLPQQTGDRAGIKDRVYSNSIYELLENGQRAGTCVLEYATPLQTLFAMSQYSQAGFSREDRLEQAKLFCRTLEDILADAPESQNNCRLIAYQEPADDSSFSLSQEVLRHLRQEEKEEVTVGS
Sequence of human HAQ isoform of STING (THP-1 STING Lucia ISG cells) (Q86WV6 whole entry R71H/G230A/H232R/R293Q, canonical isoform): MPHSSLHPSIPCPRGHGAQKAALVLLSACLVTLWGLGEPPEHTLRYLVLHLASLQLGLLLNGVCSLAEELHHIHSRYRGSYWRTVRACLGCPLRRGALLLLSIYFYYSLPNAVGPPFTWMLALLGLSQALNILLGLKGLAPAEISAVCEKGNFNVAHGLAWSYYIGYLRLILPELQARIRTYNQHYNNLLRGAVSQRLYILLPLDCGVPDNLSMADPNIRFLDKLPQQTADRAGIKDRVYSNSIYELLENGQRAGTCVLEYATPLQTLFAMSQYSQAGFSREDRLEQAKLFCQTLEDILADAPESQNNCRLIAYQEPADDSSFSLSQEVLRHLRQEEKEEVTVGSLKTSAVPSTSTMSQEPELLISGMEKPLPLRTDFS

Compound | EC50 [1] [µM] | Kd (human STING (WT)) [µM]
COc1c(C(N)=O)ccc2c1nc(-c1ccc(C)cc1C(=O)O)n2CCn1c(-c2ccc(C)cc2C(=O)O)nc2c(OC)c(C(N)=O)ccc21 [Example 25, 6,6′-(Ethane-1,2-diylbis(5-carbamoyl-4-methoxy-1H-benzo[d]imidazole-1,2-diyl))bis(3-methylbenzoic acid)] | 2.96 | 250
COc1c(C(N)=O)ccc2c1nc(-c1cc(C)ccc1C(=O)O)n2CCn1c(-c2cc(C)ccc2C(=O)O)nc2c(OC)c(C(N)=O)ccc21 [Example 26, 2,2′-(Ethane-1,2-diylbis(5-carbamoyl-4-methoxy-1H-benzo[d]imidazole-1,2-diyl))bis(4-methylbenzoic acid)] | 3.38 | > 40
COc1c(C(N)=O)ccc2c1nc(-c1cnccc1C(=O)O)n2CCn1c(-c2cnccc2C(=O)O)nc2c(OC)c(C(N)=O)ccc21 [Example 30, 3,3′-(Ethane-1,2-diylbis(5-carbamoyl-4-methoxy-1H-benzo[d]imidazole-1,2-diyl))diisonicotinic acid] | 39.1 | 126
COc1c(C(N)=O)ccc2c1nc(-c1ncc(Cl)cc1C(=O)O)n2CCn1c(-c2ncc(Cl)cc2C(=O)O)nc2c(OC)c(C(N)=O)ccc21 [Example 31, 2,2′-(Ethane-1,2-diylbis(5-carbamoyl-4-methoxy-1H-benzo[d]imidazole-1,2-diyl))bis(5-chloronicotinic acid)] | > 40 | 88
COc1c(C(N)=O)ccc2c1nc(-c1ccc(Cl)cc1-c1noc(=O)[nH]1)n2CCn1c(-c2ccc(Cl)cc2-c2noc(=O)[nH]2)nc2c(OC)c(C(N)=O)ccc21 [Example 32, 1,1′-(Ethane-1,2-diyl)bis(2-(4-chloro-2-(5-oxo-4,5-dihydro-1,2,4-oxadiazol-3-yl)phenyl)-4-methoxy-1H-benzo[d]imidazole-5-carboxamide)] | > 40 | > 80
CCc1ccc(-c2nc3c(OC)c(C(N)=O)ccc3n2CCn2c(-c3ccc(CC)cc3C(=O)O)nc3c(OC)c(C(N)=O)ccc32)c(C(=O)O)c1 [Example 33, 6,6′-(Ethane-1,2-diylbis(5-carbamoyl-4-methoxy-1H-benzo[d]imidazole-1,2-diyl))bis(3-ethylbenzoic acid)] | > 40 | 107
COc1c(C(N)=O)ccc2c1nc(-c1ccc(Cl)cc1C(=O)O)n2C/C=C/Cn1c(-c2ccc(Cl)cc2C(=O)O)nc2c(OC)c(C(N)=O)ccc21 [Example 34, (E)-6,6′-(But-2-ene-1,4-diylbis(5-carbamoyl-4-methoxy-1H-benzo[d]imidazole-1,2-diyl))bis(3-chlorobenzoic acid)] | > 40 | 74
COc1c(C(N)=O)ccc2c1nc(-c1ccc(Cl)cc1C(=O)O)n2CCCn1c(-c2ccc(Cl)cc2C(=O)O)nc2c(OC)c(C(N)=O)ccc21 [Example 35, 6,6′-(Propane-1,3-diylbis(5-carbamoyl-4-methoxy-1H-benzo[d]imidazole-1,2-diyl))bis(3-chlorobenzoic acid)] | > 40 | > 100
COc1c(C(N)=O)ccc2c1nc(-c1cccc(Br)c1C(=O)O)n2CCn1c(-c2cccc(Br)c2C(=O)O)nc2c(OC)c(C(N)=O)ccc21 [Example 36, 6,6′-(Ethane-1,2-diylbis(5-carbamoyl-4-methoxy-1H-benzo[d]imidazole-1,2-diyl))bis(2-bromobenzoic acid)] | > 40 | 58
COc1c(C(N)=O)ccc2c1nc(-c1ccc(C(F)(F)F)cc1C(=O)O)n2CCn1c(-c2ccc(C(F)(F)F)cc2C(=O)O)nc2c(OC)c(C(N)=O)ccc21 [Example 38, 6,6′-(Ethane-1,2-diylbis(5-carbamoyl-4-methoxy-1H-benzo[d]imidazole-1,2-diyl))bis(3-(trifluoromethyl)benzoic acid)] | > 40 | > 100
COc1c(C(N)=O)ccc2c1nc(-c1cccc(Cl)c1-c1nn[nH]n1)n2CCn1c(-c2cccc(Cl)c2-c2nn[nH]n2)nc2c(OC)c(C(N)=O)ccc21 [Example 40, 1,1′-(Ethane-1,2-diyl)bis(2-(3-chloro-2-(2H-tetrazol-5-yl)phenyl)-4-methoxy-1H-benzo[d]imidazole-5-carboxamide)] | > 40 | 180

Compounds with a lower EC50 [1], results first:

EC50 [1] [µM] | Kd (human STING (WT)) [µM] | Compound
0.29 | 9.5 | COc1c(C(N)=O)ccc2c1nc(-c1ccc(Cl)cc1-c1n[nH]c(=O)o1)n2CCn1c(-c2ccc(Cl)cc2-c2n[nH]c(=O)o2)nc2c(OC)c(C(N)=O)ccc21 [Example 17, 1,1′-(Ethane-1,2-diyl)bis(2-(4-chloro-2-(5-oxo-4,5-dihydro-1,3,4-oxadiazol-2-yl)phenyl)-4-methoxy-1H-benzo[d]imidazole-5-carboxamide)]
0.326 | 2.01 | COc1c(C(N)=O)cc(F)c2c1nc(-c1c(F)cc(F)cc1C(=O)O)n2CCn1c(-c2c(F)cc(F)cc2C(=O)O)nc2c(OC)c(C(N)=O)cc(F)c21 [Example 18, 2,2′-(Ethane-1,2-diylbis(5-carbamoyl-7-fluoro-4-methoxy-1H-benzo[d]imidazole-1,2-diyl))bis(3,5-difluorobenzoic acid)]
1.3 | 96 | COc1c(C(N)=O)cc(F)c2c1nc(-c1ccc(Cl)cc1C(=O)O)n2CCn1c(-c2ccc(Cl)cc2C(=O)O)nc2c(OC)c(C(N)=O)cc(F)c21 [Example 20, 6,6′-(Ethane-1,2-diylbis(5-carbamoyl-7-fluoro-4-methoxy-1H-benzo[d]imidazole-1,2-diyl))bis(3-chlorobenzoic acid)]
1.49 | 5.38 | COC(=O)c1c(Br)cccc1-c1nc2c(OC)c(C(N)=O)ccc2n1CCn1c(-c2cccc(Br)c2C(=O)OC)nc2c(OC)c(C(N)=O)ccc21 [Example 21, Dimethyl 6,6′-(ethane-1,2-diylbis(5-carbamoyl-4-methoxy-1H-benzo[d]imidazole-1,2-diyl))bis(2-bromobenzoate)]
2.67 | 102 | COc1c(C(N)=O)ccc2c1nc(-c1ccc(Cl)cc1-c1cn[nH]n1)n2CCn1c(-c2ccc(Cl)cc2-c2cn[nH]n2)nc2c(OC)c(C(N)=O)ccc21 [Example 24, 1,1′-(Ethane-1,2-diyl)bis(2-(4-chloro-2-(2H-1,2,3-triazol-4-yl)phenyl)-4-methoxy-1H-benzo[d]imidazole-5-carboxamide)]
